Test results reported in the NIST ThermoML archive (doi:10.1021/je060247x).
± gives the expanded uncertainty stated by the source.

Details: Liquid

CCCCCCn1cc[n+](C)c1.F[P-](F)(F)(F)(F)F [1-hexyl-3-methylimidazolium hexafluorophosphate]
mass density [kg/m3]
Details	100 kPa	1000 kPa	2000 kPa	3000 kPa	4000 kPa	5000 kPa	10000 kPa
293.15 K	1299.8 ± 3.1	1300.3 ± 3.3	1300.8 ± 3.4	1301.4 ± 3.6	1301.9 ± 3.7	1302.4 ± 3.8	1304.9 ± 4.6
303.15 K	1290.6 ± 3.1	1291.1 ± 3.2	1291.7 ± 3.3	1292.2 ± 3.5	1292.7 ± 3.6	1293.2 ± 3.8	1295.8 ± 4.5
313.15 K	1281.5 ± 3	1282 ± 3.1	1282.6 ± 3.3	1283.1 ± 3.4	1283.7 ± 3.5	1284.3 ± 3.7	1287 ± 4.4
323.15 K	1272.7 ± 3	1273.2 ± 3.1	1273.9 ± 3.2	1274.5 ± 3.3	1275 ± 3.5	1275.6 ± 3.6	1278.5 ± 4.3
333.15 K	1264.2 ± 2.9	1264.8 ± 3	1265.4 ± 3.1	1266 ± 3.3	1266.6 ± 3.4	1267.3 ± 3.5	1270.3 ± 4.2
343.15 K	1256.1 ± 2.8	1256.7 ± 3	1257.3 ± 3.1	1258 ± 3.2	1258.6 ± 3.3	1259.2 ± 3.5	1262 ± 4.1
353.15 K	1248 ± 2.8	1248.6 ± 2.9	1249.2 ± 3	1249.9 ± 3.1	1250.5 ± 3.3	1251.2 ± 3.4	1254.2 ± 4
363.15 K	1240.6 ± 2.7	1241.2 ± 2.9	1242 ± 3	1242.6 ± 3.1	1243.3 ± 3.2	1244 ± 3.3	1247.2 ± 3.9
373.15 K	1233.4 ± 2.7	1234.1 ± 2.8	1234.9 ± 2.9	1235.6 ± 3	1236.3 ± 3.2	1237 ± 3.3	1240.3 ± 3.9
383.15 K	1226.4 ± 2.7	1227.2 ± 2.8	1227.9 ± 2.9	1228.7 ± 3	1229.4 ± 3.1	1230.1 ± 3.2	1233.6 ± 3.8
393.15 K	1219.4 ± 2.6	1220.1 ± 2.7	1220.9 ± 2.8	1221.7 ± 2.9	1222.5 ± 3	1223.3 ± 3.2	1227 ± 3.7

CCCCn1cc[n+](C)c1.O=S(=O)([O-])C(F)(F)F [1-butyl-3-methylimidazolium trifluoromethanesulfonate]
mass density [kg/m3]
Details	100 kPa	1000 kPa	2000 kPa	3000 kPa	4000 kPa	5000 kPa	10000 kPa
293.15 K	1306.1 ± 1.5	1306.6 ± 1.6	1307.1 ± 1.7	1307.7 ± 1.8	1308.2 ± 1.9	1308.8 ± 2	1311.5 ± 2.5
303.15 K	1296.6 ± 1.5	1297.1 ± 1.6	1297.7 ± 1.7	1298.3 ± 1.8	1298.9 ± 1.9	1299.5 ± 2	1302.3 ± 2.5
313.15 K	1287.6 ± 1.5	1288.1 ± 1.6	1288.7 ± 1.7	1289.3 ± 1.7	1289.9 ± 1.8	1290.5 ± 1.9	1293.3 ± 2.4
323.15 K	1278.7 ± 1.4	1279.3 ± 1.5	1280 ± 1.6	1280.7 ± 1.7	1281.3 ± 1.8	1282 ± 1.9	1285 ± 2.3
333.15 K	1270.5 ± 1.4	1271.1 ± 1.5	1271.7 ± 1.6	1272.4 ± 1.7	1273.1 ± 1.8	1273.8 ± 1.8	1276.9 ± 2.3
343.15 K	1262.5 ± 1.4	1263.1 ± 1.5	1263.8 ± 1.5	1264.5 ± 1.6	1265.2 ± 1.7	1265.8 ± 1.8	1269.1 ± 2.2
353.15 K	1254 ± 1.4	1254.7 ± 1.4	1255.3 ± 1.5	1256 ± 1.6	1256.7 ± 1.7	1257.4 ± 1.8	1260.7 ± 2.2
363.15 K	1246.8 ± 1.4	1247.5 ± 1.4	1248.3 ± 1.5	1249 ± 1.6	1249.7 ± 1.6	1250.4 ± 1.7	1253.8 ± 2.1
373.15 K	1239.6 ± 1.3	1240.3 ± 1.4	1241.1 ± 1.5	1241.8 ± 1.5	1242.5 ± 1.6	1243.2 ± 1.7	1246.6 ± 2.1
383.15 K	1232.4 ± 1.3	1233.1 ± 1.4	1233.9 ± 1.4	1234.6 ± 1.5	1235.4 ± 1.6	1236.1 ± 1.7	1239.7 ± 2
393.15 K	1225.3 ± 1.3	1226.1 ± 1.4	1226.8 ± 1.4	1227.6 ± 1.5	1228.4 ± 1.6	1229.1 ± 1.6	1232.7 ± 2
